For five compounds, IC50 results are on record in patent publication US6924302B2, “Substituted triazole diamine derivatives as kinase inhibitors” (Ortho McNeil Pharmaceutical, Inc., priority 2000, dated 2005).

Usually IC50 stands for the midpoint of a concentration-inhibition curve.

Structures are written as SMILES.

Common to all, as to settings: Tables 2a-2k
One test has as its target T1, ERK-1 protein (Homo sapiens, UniProt P27361).
T1 construct: purchased Calbiochem
Kind of test: Kinase Selectivity Assay ERK-1. Type of test: biochemical. How it is done:
Assays to test compound inhibition of other kinases were preformed using methods that measure the amount of phosphorylation of a biotinylated peptide substrate. Biotinylated peptide substrates were selected from the literature as appropriate for the enzyme being evaluated. The general procedure used to assay for kinase activity is as follows: A kinase reaction mix was prepared in 50 mM Tris-HCl pH=8, 10 mM MgCl2, 0.1 mM Na3VO4, 1 mM DTT, 10 μM ATP, 0.25-1 μM biotinylated peptide substrate, 0.2-0.82 μCuries per well ^33P-γ-ATP [2000-3000 Ci/mmol]. Assay conditions vary slightly for each protein kinase, for example, insulin receptor kinase requires 10 mM MnCl2 for activity and Calmodulin-dependent protein kinase requires calmodulin and 10 mM CaCl2. These assay conditions are known in the art. […] The plate was read on a scintillation counter to determine ^33P-γ-ATP incorporated into the immobilized peptide. […] A maximum and minimum signal for the assay was determined on each plate. The IC50 was calculated from the dose response curve of the percent inhibition of the maximum signal in the assay according to the formula [max signal—background/test compound signal—background (100)=% inhibition] by graphing the percent inhibition against the log concentration of test compound. […]

Another test addresses T2, CDK4/D1 complex (Mus musculus, UniProt P30285).
T2 construct: made in house; host or cells: insect cells (baculovirus co-infection)
The test can be described thus: Kinase Selectivity Assay CDK4. In kind it is biochemical. How it is done:
Assays to test compound inhibition of other kinases were preformed using methods that measure the amount of phosphorylation of a biotinylated peptide substrate. Biotinylated peptide substrates were selected from the literature as appropriate for the enzyme being evaluated. The general procedure used to assay for kinase activity is as follows: A kinase reaction mix was prepared in 50 mM Tris-HCl pH=8, 10 mM MgCl2, 0.1 mM Na3VO4, 1 mM DTT, 10 μM ATP, 0.25-1 μM biotinylated peptide substrate, 0.2-0.82 μCuries per well ^33P-γ-ATP [2000-3000 Ci/mmol]. Assay conditions vary slightly for each protein kinase, for example, insulin receptor kinase requires 10 mM MnCl2 for activity and Calmodulin-dependent protein kinase requires calmodulin and 10 mM CaCl2. These assay conditions are known in the art. The reaction mixture was dispensed into the wells of a streptavidin coated Flashplate and 1 μl drug stock in 100% DMSO was added to a 100 μl reaction volume resulting in a final concentration of 1% DMSO on the reaction. Enzyme was diluted in 50 mM Tris-HCl pH=8.0, 0.1% BSA and add to each well. The reaction was incubated for one hour at 30° C. in the presence of compound. After one hour the reaction mix was aspirated from the plate and the plate was washed with PBS containing 100 mM EDTA. The plate was read on a scintillation counter to determine ^33P-γ-ATP incorporated into the immobilized peptide. Test compounds were assayed in duplicate at 8 concentrations [100 uM, 10 uM, 1 uM, 100 nM, 10 nM, 1 nM, 100 pM, 10 pM]. A maximum and minimum signal for the assay was determined on each plate. The IC50 was calculated from the dose response curve of the percent inhibition of the maximum signal in the assay according to the formula [max signal—background/test compound signal—background (100)=% inhibition] by graphing the percent inhibition against the log concentration of test compound. Known inhibitor compounds appropriate for the kinase being assayed were also included on each plate. […]

Test [1] deals with PKC (protein kinase-C), gamma or beta isoform. The test can be described thus: Kinase Selectivity Assay PKC. Type of test: biochemical, human. As to the method:
Assays to test compound inhibition of other kinases were preformed using methods that measure the amount of phosphorylation of a biotinylated peptide substrate. Biotinylated peptide substrates were selected from the literature as appropriate for the enzyme being evaluated. […] Assay conditions vary slightly for each protein kinase, for example, insulin receptor kinase requires 10 mM MnCl2 for activity and Calmodulin-dependent protein kinase requires calmodulin and 10 mM CaCl2. These assay conditions are known in the art. The reaction mixture was dispensed into the wells of a streptavidin coated Flashplate and 1 μl drug stock in 100% DMSO was added to a 100 μl reaction volume resulting in a final concentration of 1% DMSO on the reaction. Enzyme was diluted in 50 mM Tris-HCl pH=8.0, 0.1% BSA and add to each well. The reaction was incubated for one hour at 30° C. in the presence of compound. After one hour the reaction mix was aspirated from the plate and the plate was washed with PBS containing 100 mM EDTA. The plate was read on a scintillation counter to determine ^33P-γ-ATP incorporated into the immobilized peptide. Test compounds were assayed in duplicate at 8 concentrations [100 uM, 10 uM, 1 uM, 100 nM, 10 nM, 1 nM, 100 pM, 10 pM]. A maximum and minimum signal for the assay was determined on each plate. The IC50 was calculated from the dose response curve of the percent inhibition of the maximum signal in the assay according to the formula [max signal—background/test compound signal—background (100)=% inhibition] by graphing the percent inhibition against the log concentration of test compound. Known inhibitor compounds appropriate for the kinase being assayed were also included on each plate.
CDK2 in complex with cyclin A is commercially available (Upstate Biotech, Lake Placid, N.Y.). […]

T2 sequence (P30285 whole entry): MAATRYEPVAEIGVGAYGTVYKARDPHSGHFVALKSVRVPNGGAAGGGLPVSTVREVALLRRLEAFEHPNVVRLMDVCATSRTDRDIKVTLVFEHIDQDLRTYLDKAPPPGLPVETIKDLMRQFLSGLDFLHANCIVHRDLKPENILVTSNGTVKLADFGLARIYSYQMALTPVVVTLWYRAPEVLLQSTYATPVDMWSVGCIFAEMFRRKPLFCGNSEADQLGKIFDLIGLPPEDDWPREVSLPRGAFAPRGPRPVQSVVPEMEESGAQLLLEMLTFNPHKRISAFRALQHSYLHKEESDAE
T2 sequence (P25322 whole entry partner): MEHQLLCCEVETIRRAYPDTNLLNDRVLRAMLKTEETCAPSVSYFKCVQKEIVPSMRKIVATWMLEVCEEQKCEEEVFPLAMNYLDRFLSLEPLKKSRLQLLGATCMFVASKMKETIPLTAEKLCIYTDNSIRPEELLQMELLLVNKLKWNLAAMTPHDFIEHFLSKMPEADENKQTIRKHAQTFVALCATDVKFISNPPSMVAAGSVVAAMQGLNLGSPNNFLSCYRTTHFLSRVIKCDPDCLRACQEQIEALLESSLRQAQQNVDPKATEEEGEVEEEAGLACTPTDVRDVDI
T1 sequence (P27361 whole entry, species assumed): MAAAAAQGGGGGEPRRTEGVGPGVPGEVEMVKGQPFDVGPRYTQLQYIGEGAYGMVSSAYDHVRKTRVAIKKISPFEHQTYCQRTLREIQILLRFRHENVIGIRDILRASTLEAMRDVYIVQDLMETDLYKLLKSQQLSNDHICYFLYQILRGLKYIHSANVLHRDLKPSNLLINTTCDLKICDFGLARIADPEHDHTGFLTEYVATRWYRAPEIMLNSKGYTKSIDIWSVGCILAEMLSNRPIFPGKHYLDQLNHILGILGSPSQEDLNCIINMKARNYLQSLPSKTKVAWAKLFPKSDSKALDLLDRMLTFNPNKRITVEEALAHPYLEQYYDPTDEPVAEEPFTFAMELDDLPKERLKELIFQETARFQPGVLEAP

At ERK-1 protein, `Nc1nc(Nc2ccc(S(N)(=O)=O)cc2)nn1C(=O)c1cccs1` [Cpd 14, 4-[[5-amino-1-(2-thienylcarbonyl)-1H-1,2,4-triazol-3-yl]amino]-benzenesulfonamide] came in with an IC50 above 100000 nM.

`Cc1ccc(F)c(C(=O)n2nc(Nc3ccc(S(N)(=O)=O)cc3)nc2N)c1Cl` [Cpd 69, 4-[[5-amino-1-(2-chloro-6-fluoro-3-methylbenzoyl)-1H-1,2,4-triazol-3-yl]amino]-benzenesulfonamide] showed an IC50 against CDK4/D1 complex of 187 nM.

Take `Nc1nc(Nc2ccc(S(N)(=O)=O)cc2)nn1C(=O)c1c(F)cccc1Cl` [Cpd 70, 4-[[5-amino-1-(2-chloro-6-fluorobenzoyl)-1H-1,2,4-triazol-3-yl]amino]-benzenesulfonamide]: the IC50 against CDK4/D1 complex is 167 nM.

Compound `CN1CCN(c2ccc(Nc3nc(N)n(C(=O)c4c(F)cccc4F)n3)cc2)CC1` [Cpd 71, 1-(2,6-difluorobenzoyl)-N^3-[4-(4-methyl-1-piperazinyl)phenyl]-1H-1,2,4-triazole-3,5-diamine] displayed an IC50 on CDK4/D1 complex of 129 nM. The IC50 values of the last two compounds are within 1.5-fold of each other.

On to `Cc1ccsc1C(=O)n1nc(Nc2ccc(N3CCNC3=O)cc2)nc1N` [Cpd 113, 1-[4-[[5-amino-1-[(3-methyl-2-thienyl)carbonyl]-1H-1,2,4-triazol-3-yl]amino]phenyl]-2-imidazolidinone], for which the IC50 in test [1] is above 100000 nM.
